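Method: 48-hour compound exposure of cells in 96-well plates, five concentrations, linear interpolation of endpoints. GI50 is the concentration that inhibits growth by half.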 Calls of active or inactive are those of the source. Rule as the data show it: active = GI50 up to about 1.1 µM and inactive = higher.
Columns and labels:
Experiment in all cases: NCI anticancer screen, dose series, 48 h
Hs-578T = test system: Hs-578T
SN12C = test system: SN12C
RXF 393 = test system: RXF 393
NCI-H23 = test system: NCI-H23
NCI/ADR-RES = test system: NCI/ADR-RES
SNB-75 = test system: SNB-75
786-0 = test system: 786-0
UACC-62 = test system: UACC-62
HT-29 = test system: HT-29
UO-31 = test system: UO-31
IGROV-1 = test system: IGROV-1
T47D = test system: T47D
OVCAR-4 = test system: OVCAR-4
HCT-15 = test system: HCT-15
MCF7 = test system: MCF7
SK-OV-3 = test system: SK-OV-3
NCI-H522 = test system: NCI-H522
SF-268 = test system: SF-268
UACC-257 = test system: UACC-257
SF-295 = test system: SF-295
SK-MEL-28 = test system: SK-MEL-28
HCC 2998 = test system: HCC 2998
COLO 205 = test system: COLO 205
LOX IMVI = test system: LOX IMVI
OVCAR-3 = test system: OVCAR-3
OVCAR-8 = test system: OVCAR-8
EKVX = test system: EKVX
SK-MEL-5 = test system: SK-MEL-5
CCRF-CEM = test system: CCRF-CEM
HOP-62 = test system: HOP-62
A549 = test system: A549
ACHN = test system: ACHN
RPMI-8226 = test system: RPMI-8226
TK-10 = test system: TK-10
OVCAR-5 = test system: OVCAR-5
Malme-3M = test system: Malme-3M
KM12 = test system: KM12
A498 = test system: A498
MDA-MB-435 = test system: MDA-MB-435
DU-145 = test system: DU-145
HCT-116 = test system: HCT-116
HOP-92 = test system: HOP-92
CAKI-1 = test system: CAKI-1
K562 = test system: K562
M14 = test system: M14
NCI-H460 = test system: NCI-H460
HL-60 = test system: HL-60
SW-620 = test system: SW-620
MOLT-4 = test system: MOLT-4
BT-549 = test system: BT-549
MDA-N = test system: MDA-N
SNB-19 = test system: SNB-19

OC1(C(Sc2cc(C(F)(F)F)cc(C(F)(F)F)c2)Sc2cc(C(F)(F)F)cc(C(F)(F)F)c2)C=CCCC1 (configuration not stated)
GI50 (Hs-578T): 2950 nM (inactive) | GI50 (SN12C): 2140 nM (inactive) | GI50 (RXF 393): 1750 nM (inactive) | GI50 (NCI-H23): 2580 nM (inactive) | GI50 (NCI/ADR-RES): 2930 nM (inactive) | GI50 (SNB-75): 2150 nM (inactive) | GI50 (786-0): 2390 nM (inactive) | GI50 (UACC-62): 1990 nM (inactive) | GI50 (HT-29): 1080 nM (active) | GI50 (UO-31): 1380 nM (inactive) | GI50 (IGROV-1): 2380 nM (inactive) | GI50 (T47D): 1250 nM (inactive) | GI50 (OVCAR-4): 1740 nM (inactive) | GI50 (HCT-15): 1370 nM | GI50 (MCF7): 1490 nM (inactive) | GI50 (SK-OV-3): 2670 nM (inactive) | GI50 (NCI-H522): 1740 nM (inactive) | GI50 (SF-268): 2540 nM (inactive) | GI50 (UACC-257): 1200 nM (inactive) | GI50 (SF-295): 1860 nM (inactive) | GI50 (SK-MEL-28): 2710 nM (inactive) | GI50 (HCC 2998): 1400 nM (inactive) | GI50 (COLO 205): 1990 nM (inactive) | GI50 (LOX IMVI): 1660 nM (inactive) | GI50 (OVCAR-3): 2040 nM (inactive) | GI50 (OVCAR-8): 2120 nM (inactive) | GI50 (EKVX): 2220 nM (inactive) | GI50 (SK-MEL-5): 9530 nM (inactive) | GI50 (CCRF-CEM): 1610 nM (inactive) | GI50 (HOP-62): 3250 nM (inactive) | GI50 (A549): 1630 nM (inactive) | GI50 (ACHN): 1850 nM (inactive) | GI50 (RPMI-8226): 1470 nM (inactive) | GI50 (TK-10): 1510 nM (inactive) | GI50 (OVCAR-5): 847 nM (active) | GI50 (Malme-3M): 2770 nM (inactive) | GI50 (KM12): 1730 nM (inactive) | GI50 (A498): 1350 nM (inactive) | GI50 (MDA-MB-435): 1860 nM (inactive) | GI50 (DU-145): 2530 nM (inactive) | GI50 (HCT-116): 2120 nM (inactive) | GI50 (HOP-92): 2830 nM (inactive) | GI50 (CAKI-1): 1790 nM (inactive) | GI50 (K562): 1530 nM (inactive) | GI50 (M14): 1810 nM (inactive) | GI50 (NCI-H460): 1330 nM (inactive) | GI50 (HL-60): 1380 nM (inactive) | GI50 (SW-620): 1910 nM (inactive) | GI50 (MOLT-4): 1650 nM (inactive) | GI50 (BT-549): 3350 nM (inactive) | GI50 (MDA-N): 2560 nM (inactive) | GI50 (SNB-19): 2490 nM (inactive)
